Assay results taken from US20120225062A1 (priority 2011, published 2012).

Tests used:
[1] = system: KMS11 (human myeloma cell line); assay: Cell Proliferation Assay (CellTiter-Glo, 3 days); assay type: cell-based; details: KMS-11, 72 h, KMS11-luc cells
Method in brief: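 EC50 from CellTiter-Glo luminescence after 3-day, 37° C compound treatment of KMS11 cells seeded at 2000 per well in IMDM plus 10% FBS.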

Pim 1 = Pim 1 (Homo sapiens, UniProt P11309); assay: Pim 1 AlphaScreen assay (high ATP)
Pim 2 = Pim 2 (Homo sapiens, UniProt Q9P1W9); assay: Pim 2 AlphaScreen assay (high ATP)
Pim 2, sequence (Q9P1W9 whole entry): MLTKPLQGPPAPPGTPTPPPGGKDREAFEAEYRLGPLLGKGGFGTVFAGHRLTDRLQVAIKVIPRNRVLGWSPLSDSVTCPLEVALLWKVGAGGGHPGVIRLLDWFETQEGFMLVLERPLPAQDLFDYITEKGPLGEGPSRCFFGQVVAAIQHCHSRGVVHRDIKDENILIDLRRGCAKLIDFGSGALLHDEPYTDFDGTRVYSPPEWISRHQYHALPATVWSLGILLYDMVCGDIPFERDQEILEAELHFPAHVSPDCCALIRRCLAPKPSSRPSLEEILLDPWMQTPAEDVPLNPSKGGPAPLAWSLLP
Protocol: The activity of Pim 1, Pim 2, & Pim 3 is measured using a homogeneous bead based system quantifying the amount of phosphorylated peptide substrate resulting from kinase-catalyzed phosphoryl transfer to a peptide substrate. Compounds to be tested are dissolved in 100% DMSO and directly distributed to a white 384-well plate at 0.25 μl per well. […] This is followed by the addition of 5 μl/well of Pim 1, Pim 2 or Pim 3 kinase in assay buffer (concentrations described below). Final assay concentrations (described below) are in 2.5% DMSO. The reactions are performed for ˜2 hours, then stopped by the addition of 10 μl of 0.75 μg/ml anti-phospho Ser/Thr antibody (Cell Signaling), 10 μg/ml Protein A AlphaScreen beads (Perkin Elmer), and 10 μg/ml streptavidin coated AlphaScreen beads in stop/detection buffer (50 mM EDTA, 95 mM Tris, pH=7.5, 0.01% Tween-20). The stopped reactions are incubated overnight in the dark. The phosphorylated peptide is detected via an oxygen anion initiated chemiluminescence/fluorescence cascade using the Envision plate reader (Perkin Elmer).

Pim 3 = Pim 3 (Homo sapiens, UniProt Q86V86); assay: Pim 3 AlphaScreen assay (high ATP)

Pim 1, sequence (P11309 whole entry): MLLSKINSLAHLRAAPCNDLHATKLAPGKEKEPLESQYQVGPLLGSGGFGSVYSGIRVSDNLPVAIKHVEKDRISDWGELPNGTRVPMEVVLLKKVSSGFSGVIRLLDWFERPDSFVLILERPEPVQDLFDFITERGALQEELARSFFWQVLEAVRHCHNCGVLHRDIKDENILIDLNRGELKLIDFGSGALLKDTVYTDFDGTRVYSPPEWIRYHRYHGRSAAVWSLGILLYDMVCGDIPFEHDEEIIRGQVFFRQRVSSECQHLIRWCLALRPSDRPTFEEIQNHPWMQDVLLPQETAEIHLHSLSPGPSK

Row | SMILES | EC50 [1] [nM] | IC50 (Pim 1) [nM] | IC50 (Pim 2) [nM] | IC50 (Pim 3) [nM]
1 | C[C@@H]1C[C@H](N)C[C@H](c2ccncc2NC(=O)c2ccc(F)c(-c3c(F)cc(C4(O)CC4)cc3F)n2)C1 [Example 44, N-(4-((1R,3S,5S)-3-amino-5-methylcyclohexyl)pyridin-3-yl)-6-(2,6-difluoro-4-(1-hydroxycyclopropyl)phenyl)-5-fluoropicolinamide] | 18 | 0.01 | 2.03 | 0.77
2 | COCCOc1cc(F)c(-c2nc(C(=O)Nc3cnccc3[C@H]3C[C@@H](N)[C@@H](O)[C@@H](C)C3)ccc2F)c(F)c1 [Example 124, N-(4-((1R,3R,4S,5S)-3-amino-4-hydroxy-5-methylcyclohexyl)pyridin-3-yl)-6-(2,6-difluoro-4-(2-methoxyethoxy)phenyl)-5-fluoropicolinamide] | 119 | 0.06 | 7.18 | 1.72
3 | COCCOc1cc(F)c(-c2cccc(C(=O)Nc3cnccc3[C@@H]3C[C@H](C)C[C@H](N)C3)n2)c(F)c1 [Example 188, N-(4-((1R,3S,5S)-3-amino-5-methylcyclohexyl)pyridin-3-yl)-6-(2,6-difluoro-4-(2-methoxyethoxy)phenyl)picolinamide] | 478 | 0.07 | 3.96 | 1.96
4 | C[C@H]1CN(c2ccncc2NC(=O)c2ccc(F)c(-c3c(F)cc(C4CCS(=O)(=O)CC4)cc3F)n2)C[C@@H](N)[C@@H]1O [Example 204, N-(4-((3R,4R,5S)-3-amino-4-hydroxy-5-methylpiperidin-1-yl)pyridin-3-yl)-6-(4-(1,1-dioxidotetrahydro-2H-thiopyran-4-yl)-2,6-difluorophenyl)-5-fluoropicolinamide] | 115 | 0.01 | 0.38 | 0.14
5 | Cc1cc(F)c(-c2nc(C(=O)Nc3cnccc3[C@H]3C[C@@H](N)C[C@@H](C(C)C)C3)ccc2F)c(F)c1 [Example 123, N-(4-((1R,3S,5S)-3-amino-5-isopropylcyclohexyl)pyridin-3-yl)-6-(2,6-difluoro-4-methylphenyl)-5-fluoropicolinamide] | 59 | 0.02 | 0.8 | 0.58
6 | C[C@H]1C[C@@H](c2ccncc2NC(=O)c2ccc(F)c(-c3c(F)cc(OC4CCOC4)cc3F)n2)C[C@@H](N)[C@@H]1O (stereo in doubt) [Example 70, N-(4-((1R,3R,4R,5S)-3-amino-4-hydroxy-5-methylcyclohexyl)pyridin-3-yl)-6-(2,6-difluoro-4-((S)-tetrahydrofuran-3-yloxy)phenyl)-5-fluoropicolinamide] | 68 | 0.04 | 4.01 | 1.15
7 | C[C@H]1CN(c2ccncc2NC(=O)c2nc(-c3c(F)cc(C4COC4)cc3F)c(F)cc2N)C[C@@H](N)[C@@H]1O [Example 107, 3-amino-N-(4-((3R,4R,5S)-3-amino-4-hydroxy-5-methylpiperidin-1-yl)pyridin-3-yl)-6-(2,6-difluoro-4-(oxetan-3-yl)phenyl)-5-fluoropicolinamide] | 157 | 0.02 | 1.03 | 0.31
8 | C[C@@H]1C[C@H](N)C[C@H](c2ccncc2NC(=O)c2ccc(F)c(-c3c(F)cc4c(c3F)OCC[C@]4(C)O)n2)C1 [Example 239, N-(4-((1R,3S,5S)-3-amino-5-methylcyclohexyl)pyridin-3-yl)-6-((S)-6,8-difluoro-4-hydroxy-4-methylchroman-7-yl)-5-fluoropicolinamide] | 31 | 0.01 | 1.72 | 1.1
9 | C[C@@H]1C[C@H](N)C[C@H](c2ccncc2NC(=O)c2ccc(F)c(-c3c(F)cc(C4(C#N)CCOCC4)cc3F)n2)C1 [Example 170, N-(4-((1R,3S,5S)-3-amino-5-methylcyclohexyl)pyridin-3-yl)-6-(4-(4-cyanotetrahydro-2H-pyran-4-yl)-2,6-difluorophenyl)-5-fluoropicolinamide] | 84 | 0.03 | 2.83 | 4.54
10 | COCCOc1cc(F)c(-c2nc(C(=O)Nc3cnccc3[C@H]3C[C@@H](N)[C@H](O)[C@@H](C)C3)c(N)cc2F)c(F)c1 [Example 120, 3-amino-N-(4-((1R,3R,4R,5S)-3-amino-4-hydroxy-5-methylcyclohexyl)pyridin-3-yl)-6-(2,6-difluoro-4-(2-methoxyethoxy)phenyl)-5-fluoropicolinamide] | 32 | 0.03 | 3.78 | 0.51

Next, values leading:

Row | EC50 [1] [nM] | IC50 (Pim 1) [nM] | IC50 (Pim 2) [nM] | IC50 (Pim 3) [nM] | SMILES
11 | 17 | 0.01 | 0.91 | 0.22 | C[C@@H]1C[C@H](N)C[C@H](c2ccncc2NC(=O)c2nc(-c3c(F)cc(OC4CCOCC4)cc3F)c(F)cc2N)C1 [Example 86, 3-amino-N-(4-((1R,3S,5S)-3-amino-5-methylcyclohexyl)pyridin-3-yl)-6-(2,6-difluoro-4-(tetrahydro-2H-pyran-4-yloxy)phenyl)-5-fluoropicolinamide]
12 | 10 | 0.03 | 1.35 | 0.47 | COCc1cc(F)c(-c2nc(C(=O)Nc3cnccc3N3C[C@@H](N)[C@H](O)[C@@H](C)C3)ccc2F)c(F)c1 [Example 38, N-(4-((3R,4R,5S)-3-amino-4-hydroxy-5-methylpiperidin-1-yl)pyridin-3-yl)-6-(2,6-difluoro-4-(methoxymethyl)phenyl)-5-fluoropicolinamide]
13 | 244 | 0.03 | 3.5 | 1.99 | CCOC(C)(C)c1cc(F)c(-c2nc(C(=O)Nc3cnccc3[C@@H]3C[C@H](C)C[C@H](N)C3)ccc2F)c(F)c1 [Example 145, N-(4-((1R,3S,5S)-3-amino-5-methylcyclohexyl)pyridin-3-yl)-6-(4-(2-ethoxypropan-2-yl)-2,6-difluorophenyl)-5-fluoropicolinamide]
14 | 2440 | 0.26 | 58.5 | 29.5 | Cc1noc(C)c1-c1cc(F)c(-c2nc(C(=O)Nc3cnccc3[C@H]3C[C@@H](N)[C@H](O)[C@@H](C)C3)ccc2F)c(F)c1 [Example 173, N-(4-((1R,3R,4R,5S)-3-amino-4-hydroxy-5-methylcyclohexyl)pyridin-3-yl)-6-(4-(3,5-dimethylisoxazol-4-yl)-2,6-difluorophenyl)-5-fluoropicolinamide]
15 | 83 | 0.01 | 3.84 | 1.01 | C[C@@H]1C[C@H](N)C[C@H](c2ccncc2NC(=O)c2ccc(F)c(-c3c(F)cc(OC(F)F)cc3F)n2)C1 [Example 65, N-(4-((1R,3S,5S)-3-amino-5-methylcyclohexyl)pyridin-3-yl)-6-(4-(difluoromethoxy)-2,6-difluorophenyl)-5-fluoropicolinamide]
16 | 120 | 0.04 | 2.91 | 1.39 | COCCOc1cc(F)c(-c2nc(C(=O)Nc3cnccc3[C@@H]3C[C@H](C)C[C@H](N)C3)ccc2F)c(F)c1 [Example 12, N-(4-((1R,3S,5S)-3-amino-5-methylcyclohexyl)pyridin-3-yl)-6-(2,6-difluoro-4-(2-methoxyethoxy)phenyl)-5-fluoropicolinamide]
